# Results as given in ChEMBL document CHEMBL1201862, “PubChem BioAssay data set” (2004).
# Calls of active or inactive are those of the source.
# What was measured:
# [1] = molecular target: T1, Rac GTPase-activating protein 1 (Homo sapiens, UniProt Q9H0H5); test: MgcRacGAP GTPase-activating activity inhibitors, confirmation, biochemical, ADP Hunter fluorescence, primary and confirmatory (AID 624330); format: functional
# T1 sequence (Q9H0H5 whole entry): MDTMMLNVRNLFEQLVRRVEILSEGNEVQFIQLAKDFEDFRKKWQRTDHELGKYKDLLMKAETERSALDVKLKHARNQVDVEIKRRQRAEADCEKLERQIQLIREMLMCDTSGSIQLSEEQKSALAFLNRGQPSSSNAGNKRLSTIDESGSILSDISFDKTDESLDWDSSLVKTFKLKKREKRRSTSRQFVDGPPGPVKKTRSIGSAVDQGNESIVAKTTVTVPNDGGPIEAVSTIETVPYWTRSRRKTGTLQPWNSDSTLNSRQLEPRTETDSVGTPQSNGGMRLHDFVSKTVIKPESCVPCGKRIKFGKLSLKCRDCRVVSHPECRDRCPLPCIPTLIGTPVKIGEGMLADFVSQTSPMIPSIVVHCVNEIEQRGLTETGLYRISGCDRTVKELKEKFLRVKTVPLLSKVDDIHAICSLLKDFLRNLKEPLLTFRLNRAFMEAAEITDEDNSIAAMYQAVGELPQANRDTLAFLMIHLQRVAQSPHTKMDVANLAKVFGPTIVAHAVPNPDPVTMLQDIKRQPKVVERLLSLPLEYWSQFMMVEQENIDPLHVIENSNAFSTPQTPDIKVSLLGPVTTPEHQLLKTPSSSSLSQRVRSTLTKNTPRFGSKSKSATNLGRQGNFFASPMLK
# [2] = molecular target: T2, Heat shock factor protein 1 (Mus musculus, UniProt P38532); test: inhibition of MG132-induced HSE-luciferase signal, confirmation, cell-based, NIH3T3, luminescence, dose retest (AID 2382); format: functional;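 further: NIH3T3 fibroblasts with HSF1-driven luciferase reporter stressed by proteasome inhibitor MG132; luminescence from HSF1-driven luciferase expression after 8 hours of MG132 stress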
# T2 sequence (P38532 whole entry): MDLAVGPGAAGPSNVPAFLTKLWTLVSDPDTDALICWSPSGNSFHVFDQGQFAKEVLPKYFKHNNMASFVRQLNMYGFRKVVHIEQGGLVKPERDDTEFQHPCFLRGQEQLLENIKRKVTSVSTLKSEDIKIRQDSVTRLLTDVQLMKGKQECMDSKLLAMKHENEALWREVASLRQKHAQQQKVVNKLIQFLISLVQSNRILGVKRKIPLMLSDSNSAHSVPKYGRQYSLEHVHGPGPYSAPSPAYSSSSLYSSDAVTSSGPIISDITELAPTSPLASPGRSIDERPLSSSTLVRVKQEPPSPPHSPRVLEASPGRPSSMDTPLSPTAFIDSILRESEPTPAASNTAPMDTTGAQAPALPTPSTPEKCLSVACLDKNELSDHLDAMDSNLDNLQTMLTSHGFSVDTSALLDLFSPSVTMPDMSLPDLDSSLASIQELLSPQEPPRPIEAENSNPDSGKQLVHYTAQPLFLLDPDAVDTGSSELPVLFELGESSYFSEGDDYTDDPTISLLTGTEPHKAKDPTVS
# [3] = inhibitors of intracellular T. cruzi replication, confirmation, NIH3T3 host cells, beta-gal luminescence (AID 2044); format: functional, cell-based;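 further: intracellular parasites grown in NIH/3T3 mouse fibroblasts as host cells; luminescent beta-galactosidase reporter signal from transgenic T. cruzi replicating inside host cells; inhibitors lower the luminescence signal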
# [4] = cytotoxicity toward NIH3T3 fibroblasts, dose response, counter-screen, cell-based, ATP luminescence, mouse fibroblasts (AID 2010); format: functional;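 further: cells exposed to compound for about 90 hours before reading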
# Cytochrome P450 2C9 = Cytochrome P450 2C9 (Homo sapiens, UniProt P11712)
# Cytochrome P450 2C9, sequence (P11712 whole entry): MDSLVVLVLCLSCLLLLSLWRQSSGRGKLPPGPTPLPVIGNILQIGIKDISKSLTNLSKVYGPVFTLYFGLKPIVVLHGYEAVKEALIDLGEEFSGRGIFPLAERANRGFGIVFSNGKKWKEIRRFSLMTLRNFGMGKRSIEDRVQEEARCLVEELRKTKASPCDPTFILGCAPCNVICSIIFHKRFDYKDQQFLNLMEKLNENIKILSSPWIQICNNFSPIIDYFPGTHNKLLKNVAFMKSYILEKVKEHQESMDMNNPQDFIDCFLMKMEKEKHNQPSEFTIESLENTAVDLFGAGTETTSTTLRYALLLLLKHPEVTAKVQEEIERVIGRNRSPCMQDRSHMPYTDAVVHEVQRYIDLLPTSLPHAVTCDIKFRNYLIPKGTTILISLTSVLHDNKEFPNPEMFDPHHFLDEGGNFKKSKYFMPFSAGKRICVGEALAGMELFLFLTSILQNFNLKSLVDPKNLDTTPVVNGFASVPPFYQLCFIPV
# [5] = tested on: Streptococcus sp. 'group A'; test: growth inhibition of control SK(-) GAS strain, dose response, counter-screen for streptokinase expression inhibitor project, luminescence, kanamycin, BacTiterGlo, confirmation (AID 1900); format: functional, organism-based
# Streptococcus = test: Group A Streptococcus viability loss, dose response, counter-screen for streptokinase expression inhibitor project, luminescence, BacTiterGlo (AID 1915); format: functional, organism-based;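 further: potency for reduction of bacterial viability or growth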
# Streptokinase A = molecular target: T3, Streptokinase A (Streptococcus pyogenes serotype M1, UniProt P10520); test: S. pyogenes streptokinase expression inhibitors, potency, dose response, plasminogen activation absorbance, OD405 (AID 1914); format: functional, Streptococcus pyogenes M1 GAS;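 further: secreted streptokinase activity via plasminogen activation per viability signal from cell pellet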
# T3 sequence (P10520 whole entry): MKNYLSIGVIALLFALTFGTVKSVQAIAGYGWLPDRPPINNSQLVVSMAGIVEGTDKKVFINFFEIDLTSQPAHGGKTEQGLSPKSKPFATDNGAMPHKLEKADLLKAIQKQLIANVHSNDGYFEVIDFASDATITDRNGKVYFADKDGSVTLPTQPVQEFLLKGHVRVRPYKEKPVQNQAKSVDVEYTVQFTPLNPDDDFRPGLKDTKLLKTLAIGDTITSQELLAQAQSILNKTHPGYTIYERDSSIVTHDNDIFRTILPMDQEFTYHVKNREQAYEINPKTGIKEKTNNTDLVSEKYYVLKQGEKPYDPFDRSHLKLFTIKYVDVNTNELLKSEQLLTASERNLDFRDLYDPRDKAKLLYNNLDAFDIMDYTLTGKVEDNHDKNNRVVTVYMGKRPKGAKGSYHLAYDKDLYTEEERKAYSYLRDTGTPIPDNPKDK
# Cytochrome P450 2C19 = Cytochrome P450 2C19 (Homo sapiens, UniProt P33261); test: Cytochrome panel assay with activity outcomes. Panel member name: p450-cyp2c19 Compounds with AC50 equal or less than 10 uM are considered active; format: functional
# Cytochrome P450 2C19, sequence (P33261 whole entry): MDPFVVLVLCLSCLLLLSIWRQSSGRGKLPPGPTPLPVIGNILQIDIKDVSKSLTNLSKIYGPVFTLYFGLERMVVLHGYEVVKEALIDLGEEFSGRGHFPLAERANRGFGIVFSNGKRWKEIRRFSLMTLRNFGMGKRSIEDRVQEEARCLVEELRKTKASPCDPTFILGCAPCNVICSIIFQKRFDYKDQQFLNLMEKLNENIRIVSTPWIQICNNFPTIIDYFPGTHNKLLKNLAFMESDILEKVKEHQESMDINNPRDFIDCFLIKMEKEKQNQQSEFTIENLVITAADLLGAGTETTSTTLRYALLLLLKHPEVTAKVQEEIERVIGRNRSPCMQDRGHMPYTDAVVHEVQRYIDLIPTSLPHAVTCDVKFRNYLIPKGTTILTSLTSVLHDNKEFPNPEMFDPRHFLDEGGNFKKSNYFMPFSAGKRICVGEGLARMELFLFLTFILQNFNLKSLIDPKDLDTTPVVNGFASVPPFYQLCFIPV
smiles,measurement,setting,value
Cc1ccc(CN2CCN(Cc3ccco3)CC2)cc1,IC50,[1],72.7 µM (active)
CCOC(=O)N1CCC(NC(=O)CN2C(=O)CSc3nc(C)cc(C)c32)CC1,EC50,[2],> 195 µM (not active)
CCn1c2ccccc2n2c(=O)c(=O)n(CC(=O)Nc3ccc(C(C)C)cc3)nc12,EC50,[2],> 195 µM (not active)
COc1ccc(C2C(Oc3ccccc3)C(=O)N2c2cc(C)ccc2C)cc1OC (configuration not stated),EC50,[3],2.24 µM (active)
same,EC50,[4],> 60 µM (not active)
O=C(C1CCCN(S(=O)(=O)Cc2ccccc2)C1)N1CCc2ccccc21 (configuration not stated),EC50,[2],> 195 µM (not active)
COC(=O)[C@@]12CCCCN1[C@H](c1ccc(-c3cccc(Cl)c3)c(OC)c1)[C@@H]1C(=O)N(C)C(=O)[C@@H]12,EC50,[3],2.48 µM (active)
same,EC50,[4],> 60 µM (not active)
CCOC(=O)c1ccc(Cl)c(NC(=O)c2cccnc2)c1,EC50,[2],30.8 µM (active)
Fc1ccc(-c2cc(-c3ccccc3)nc(-n3cccn3)n2)cc1,EC50,[2],> 195 µM (not active)
Clc1cc(Cl)c(OCCCCn2cncn2)c(Cl)c1,IC50,[1],156 µM (active)
Cc1ccsc1/C=C(\C(=O)c1ccc(OC(C)C)cc1)c1nc2ccccc2o1,EC50,[3],1.69 µM (active)
same,EC50,[4],> 60 µM (inconclusive)
O=C(c1cccc(F)c1)N1CCC[C@@]2(CCN(c3cccc(-c4ccccc4)c3)C2)C1,AC50,Cytochrome P450 2C9,20 µM (inconclusive)
COc1ccc(NC(=O)C(NC(=O)CNC(C)=O)c2ccc(C)cc2)cc1 (configuration not stated),EC50,[2],> 195 µM (not active)
O=C1c2cccc3c(Nc4ccccc4Cl)c([N+](=O)[O-])cc(c23)C(=O)N1CCO,EC50,[3],0.519 µM (active)
same,EC50,[4],> 60 µM (not active)
Nc1nc(CSc2ncn(-c3ccccc3)n2)cs1,EC50,[2],> 195 µM (not active)
Cc1ccc(/C=C(\NC(=O)c2ccccc2)C(=O)N2CCCC2C(=O)O)cc1 (configuration not stated),EC50,[2],> 195 µM (not active)
COc1ccc(S(=O)(=O)N2CCN=C2SCc2cccc(C)c2)cc1,EC50,[5],> 150 µM (not active)
same,EC50,Streptococcus,> 150 µM (not active)
same,EC50,Streptokinase A,46.6 µM (inconclusive)
CC1CC(C)CN(c2ccc(C(=O)NCc3ccc4c(c3)OCO4)cc2[N+](=O)[O-])C1 (configuration not stated),EC50,[3],1.1 µM (active)
same,EC50,[4],> 60 µM (not active)
NC(=O)CSc1nc2sc(-c3ccccc3)cc2c(=O)n1N,AC50,Cytochrome P450 2C9,3.55 µM (inconclusive)
c1ccn2c(SCc3ccc4c(c3)OCO4)nnc2c1,EC50,[2],> 195 µM (not active)
O=C(Nc1ccccc1)NC1CC2CCC(C1)N2 (configuration not stated),EC50,[2],> 195 µM (not active)
COCCCNCCOc1ccc(C(C)(C)c2ccccc2)cc1,EC50,[3],0.611 µM (active)
same,EC50,[4],7.83 µM (active)
O=C(c1ccc(N2CCCCC2)c([N+](=O)[O-])c1)N(Cc1ccccc1)c1ccccn1,AC50,Cytochrome P450 2C9,7.94 µM (inconclusive)
COc1ccc(Oc2nc(-c3ccccn3)ncc2OC)cc1,EC50,[5],> 150 µM (not active)
same,EC50,Streptococcus,> 150 µM (not active)
same,EC50,Streptokinase A,> 150 µM (not active)
CSc1ccc(CNc2ccc(C)c(C)c2)cc1,AC50,Cytochrome P450 2C9,14.1 µM (inconclusive)
COC(=O)CCNC(=O)c1ccc2nc(Cc3ccc(OC)cc3)oc2c1,EC50,[2],> 195 µM (not active)
COc1cccc(CN2CCC(n3nccc3NC(=O)CCCc3ccccc3)CC2)c1O,EC50,[2],> 195 µM (not active)
C[C@H](CO)NC(=O)[C@H](C)[C@@H]1C[C@@]1(C)[C@@H](NC(=O)OCc1ccccc1)c1ccccc1,AC50,Cytochrome P450 2C9,39.8 µM (inconclusive)
CC(C)C1Cc2c(sc3[nH]c(=S)n(Cc4ccccc4)c(=O)c23)CO1 (configuration not stated),EC50,[5],2.15 µM (active)
same,EC50,Streptococcus,33.4 µM (active)
same,EC50,Streptokinase A,> 150 µM (not active)
CCc1ccc(OCC(=O)NC(N=C(S)Nc2ccccc2C)C(Cl)(Cl)Cl)cc1 (configuration not stated),EC50,[3],3.62 µM (active)
same,EC50,[4],> 60 µM (not active)
CC(OC(=O)c1ccc(NC(=O)CC#N)cc1)C(=O)NC(=O)NC1CCCCC1 (configuration not stated),EC50,[5],57.5 µM (active)
same,EC50,Streptococcus,> 150 µM (not active)
same,EC50,Streptokinase A,> 150 µM (not active)
Cc1ccc(/C=C/C2=NN(Cc3ccc(Cl)c(Cl)c3)C(=O)CC2)cc1,EC50,[5],17.2 µM (active)
same,EC50,Streptococcus,50.6 µM (active)
same,EC50,Streptokinase A,24.3 µM (active)
Cc1ccc(CNC(=O)CSc2nc3c(sc4ccccc43)c(=O)n2CCCN2CCCC2)cc1,EC50,[3],1.5 µM (active)
same,EC50,[4],32.5 µM (active)
Cc1ccccc1CN1CCN(C(=O)CC(C)C)CC1,EC50,[2],> 195 µM (not active)
COc1ccc(C(=O)NCC(=O)OCCCOC(=O)CNC(=O)c2ccc(OC)c(OC)c2)cc1OC,EC50,[5],> 150 µM (not active)
same,EC50,Streptococcus,> 150 µM (not active)
same,EC50,Streptokinase A,> 150 µM (not active)
Nc1ccc(-c2ccc(Nc3cc(S(=O)(=O)O)c(N)c4c3C(=O)c3ccccc3C4=O)cc2)c(S(=O)(=O)O)c1,AC50,Cytochrome P450 2C9,6.31 µM (inconclusive)
CC(C)Cc1ccc(CN2CCCC(NC(=O)c3cnc4ccccn4c3=O)C2)cc1 (configuration not stated),EC50,[3],0.131 µM (active)
same,EC50,[4],26.7 µM (active)
CCn1c(C)[n+](CCCS(=O)(=O)[O-])c2cc(Cl)c(Cl)cc21,AC50,Cytochrome P450 2C19,inconclusive
COc1ccc(NC2CCCN(C(=O)c3cccc(N(C)C)c3)C2)cc1 (configuration not stated),IC50,[1],84.9 µM (active)
O=C(Nc1ccc(N2CCCC2)c(Cl)c1)c1ccc2c(c1)OCCO2,EC50,[3],0.555 µM (active)
same,EC50,[4],> 30 µM (not active)
O=c1c(-c2cc(F)cc(F)c2)nc2cnc(N3CCNCC3)nc2n1Cc1ccc(F)cc1,AC50,Cytochrome P450 2C9,12.6 µM (inconclusive)
Cc1cc(OCC(=O)Nc2sc3c(c2C#N)CC(C)(C)NC3(C)C)c(C(C)C)cc1Cl,EC50,[2],> 195 µM (not active)
NNC(=O)c1nn(-c2ccc(Cl)cc2)cc1O,EC50,[2],27 µM (active)
O=C(Nc1ccc2[nH]c(-c3cccnc3)nc2c1)c1ccccc1F,EC50,[2],> 195 µM (not active)
COc1cc(/C=C/CN2CCC(Oc3ccc(C(=O)N4CCCC4)cc3)CC2)ccc1O,IC50,[1],81.2 µM (active)
CCc1ccc(NC(=O)CNCc2ccc(OC)c(OC)c2)cc1,IC50,[1],131 µM (active)
Cc1ccc(NC(=S)N=Nc2c(O)[nH]c3ccccc23)cc1,EC50,[5],1.22 µM (active)
same,EC50,Streptococcus,6.61 µM (active)
same,EC50,[3],2.17 µM (active)
same,EC50,Streptokinase A,> 150 µM (not active)
same,EC50,[4],4.31 µM (active)
O=C(CP(=O)(c1ccccc1)c1ccccc1)Nn1cnnc1,AC50,Cytochrome P450 2C19,inconclusive
COc1cc(/C=C/C(=O)OCC(=O)c2ccc[nH]2)ccc1O,IC50,[1],32.2 µM (active)
COc1cc(/C=N\NC(=O)c2ccc(Cn3cc(Br)c([N+](=O)[O-])n3)o2)cc(OC)c1O,EC50,[5],2.67 µM (active)
same,EC50,Streptococcus,4.9 µM (active)
Cc1cc(C)c(/N=C2\SCC(=O)N2Cc2ccco2)c(C)c1,EC50,[2],> 195 µM (not active)
CCOC(=O)C1=C(Nc2ccccc2)CC(C)(O)C(C(=O)OCC)C1c1ccccc1 (configuration not stated),EC50,[3],> 60 µM (not active)
same,EC50,[4],> 60 µM (not active)
CCCCNC(=O)C(=O)N/N=C/c1ccc(C(=O)OC)cc1,EC50,[2],> 195 µM (not active)
C[C@H]1COc2c(C3(N)CC3)c(F)cc3c(=O)c(C(=O)O)cn1c23 [PAZUFLOXACIN],EC50,[5],7.22 µM (active)
same,EC50,Streptococcus,6.74 µM (active)
